“Also recorded” adds a separate entry of the source.
Experiments:
[1] = system: forkhead transcription factor 3 (FOXO3A) in AU-565 breast cancer cells; test: FOXO3A staining of AU-565 breast cancer cells; type: cell-based
FOXO3 = test: ELISA gel for FOXO3; conditions: following treatment
[2] = system: invasive breast carcinoma; test: TUNEL staining of PCD in patient tumor samples; type: in vivo, human
Description: All TUNEL solutions and staining reagents used in the present invention were purchased from Roche. Paraffin-embedded tissue clinical samples were dewaxed and rehydrated by heating at 60° C. followed by washing in xylene and rehydration through a graded series of washes with ethanol and double distilled water. Samples were incubated for 15-30 min at 21-37° C. with Proteinase K. Slides were rinsed twice with PBS. The area around the sample was dried and 50 μl of TUNEL reaction mixture was added to each slide. A coverslip was added to each slide and incubated for 60 min at 37° C. in a humidified chamber in the dark. The slides were rinsed three times with PBS. The TUNEL signal was converted by first drying the area around the sample and then adding 50 μl of Converter-POD reagent. The slides were incubated in a humidified chamber for 30 min at 37° C. and then rinsed three times in PBS. 100 μl of DAB Substrate was added to each slide and incubated for 10 min at 15-25° C. The slides were then rinsed three times with PBS. Slides were mounted under glass coverslips and TUNEL staining was analyzed under a light microscope.

[3] = Clinical response of a subject treated with a small molecule dual inhibitor of EGFR/erbB2; type: in vivo, human; conditions: one subject
[4] = system: ER in breast cancer tissues; test: IHC of ER in breast cancer tissues after treatment; type: in vivo
[5] = system: AU-565 breast cancer cells; test: Viability of AU-565 and Bcl-2-transfected AU-565 cells after GW2974 treatment; type: cell-based
From the text: Au-565 breast cancer cells were obtained from the American Tissue Culture Collection, (deposit # CRL-2351) (Manassas, Va.) and were transfected with a Bcl-2 cDNA to express high levels of Bcl-2. Methods of transfecting cells are well known in the art and any known methods may be used in this example. Transfected Au-565 cells were then exposed to GW2974 (Sigma-Aldrich, St. Louis, Mo.), a dual EGFR/HER2 tyrosine kinase inhibitor.

BT474 breast tumor cells = test: Cell death in estrogen-stimulated BT474 cells, methylene blue staining; type: cell-based, human; conditions: 1 μM estrogen 24 hr, 5 μM GW2974 90 min, 10 μM tamoxifen 72 hr
Description: Exponentially growing BT474 cells were treated with 1 μM estrogen for 24 hr. After 24 hr the cells were either untreated or treated with 5 μM small molecule dual inhibitor of EGFR/erbB2 (Sigma, GW2974) for 90 min. After 90 min, the cells were either untreated or treated with 10 μM tamoxifen for 72 hr. Cells were then washed with 1×PBS, stained with methylene blue (1% methylene blue in 50% methanol), rinsed with water, and dried overnight.

[6] = system: ER (and PR) expression in breast cancer cells; test: ER (and PR) expression in breast cancer cells; type: cell-based
[7] = system: pAkt, pErk1 and pErk2 in MCF-7+HER2 cells; test: Western blot of MCF-7+HER2 cells for pErk1/Erk2/pAkt; type: cell-based
ER in MCF-7(HER2) cells = test: ER localization by immunofluorescence in MCF-7(HER2) cells; type: cell-based; conditions: 1 mM GW2974 for 4 days
From the text: Nuclei are stained with DAPI and ER is detected by an immunofluorescent antibody

[8] = system: breast, gastric, and head/neck carcinoma cell lines compared to normal human foreskin fibroblasts (HFF); conditions: cited from earlier work

CS(=O)(=O)CCNCc1ccc(-c2ccc3ncnc(Nc4ccc(OCc5cccc(F)c5)c(Cl)c4)c3c2)o1 [lapatinib]
FOXO3A expression [1]: upregulated; also recorded: upregulates FOXO3A | FOXO3 expression (FOXO3): upregulation of FOXO3 | response of TUNEL-positive patient to treatment ([2]; patient with invasive breast carcinoma (IBC) positive for TUNEL staining): responded well | levels of PCD by TUNEL staining ([2]; patient with invasive breast carcinoma, 21 days after treatment): significantly increased levels of PCD | clinical response [3]: complete response | duration of response / disease free state ([3]; following treatment): at least 20 months | ER localization [4]: change in ER localization

CN(C)c1cc2c(Nc3ccc4c(cnn4Cc4ccccc4)c3)ncnc2cn1 [GW2974]
viable cells ([5]; AU-565/Bcl-2 cells (overexpressing Bcl-2) treated by GW2974): approximately 50% | viable cells ([5]; AU-565 cells treated by GW2974): ~20% | higher rate of cell survival in cells with high Bcl-2 expression ([5]; following treatment with GW2974): approximately 30% | cell death (BT474 breast tumor cells): increases cell death in the presence of tamoxifen | ER (and PR) expression [6]: upregulates ER (and PR) expression | effectiveness in cells pre-treated with estrogen ([7]; MCF-7+HER2 cells pre-treated with estrogen, then GW2974): not effective | pAkt expression ([7]; MCF-7+HER2 cells treated with GW2974): not expressed; also recorded: greatly reduced | expression of pErk1 and pErk2 ([7]; MCF-7+HER2 cells treated with GW2974, relative to baseline control (actin)): decreased | ER localization (ER in MCF-7(HER2) cells): accumulation of the ER in the cellular nucleus | selectivity in inhibiting cell growth [8]: greater than 75 fold

From patent publication US7862995B2, “Methods and materials for predicting responsiveness to treatment with dual tyrosine kinase inhibitor” (Targeted Molecular Diagnostics, priority 2004, dated 2011)
